Assay results reported in US8895585B2, “Nicotinamide derivative or salt thereof” (FUJIFILM Corporation, priority 2010, dated 2014).

Biological target: T1, glutathione S-transferase (GST)-fused full-length human Syk protein (Homo sapiens, UniProt P43405)
T1 construct: (GST)-fused full-length human Syk protein; GST (glutathione S-transferase); purchased Carna Biosciences
Assay: Syk enzyme assay
Type: biochemical
Conditions: Syk enzyme assay, Test Example 1; read-out: IC50 of Syk-inhibitory activity
Experimental: A glutathione S-transferase (GST)-fused full-length human Syk protein (Carna Biosciences), which had been generated using a Baculovirus expression system, was used in the Syk enzyme assay.
15 μl of a reaction solution (1.2 ng Syk, 20 mM HEPES, 10 mM MgCl2, 50 mM NaCl, 2 mM DTT, 0.05% BSA, pH 7.0) containing a Syk protein and a predetermined concentration of a test compound was shaken for 2 minutes, and it was then left at rest at room temperature for 13 minutes. Thereafter, 5 μl of Biotin-EDPDYEWPSA-NH2 (final concentration: 0.4 μM) serving as a substrate peptide and 5 μl of ATP (final concentration: 27 μM) were added to the reaction solution, and the obtained mixture was then shaken for 2 minutes. The reaction solution was further left at rest at room temperature for 40 minutes, so as to carry out an enzyme reaction.
Thereafter, 50 μl of a reaction termination solution [5 μg/ml Streptavidin, 0.18 μg/ml PT66-K, 30 mM HEPES (pH 7.0), 150 mM KF, 75 mM EDTA, 0.15% BSA, 0.075% Tween20], which contained Streptavidin-Xlent (Cisbio) and Mab PT66-K (Cisbio), was added to the reaction solution to terminate the enzyme reaction. At the same time, the reaction solution was left at rest at room temperature for 1 hour, so as to carry out an antigen-antibody reaction. Thereafter, using EnVision (PerkinElmer), the time-resolved fluorescence was measured at 615 nm and 665 nm, so that the phosphorylation of the substrate peptide was measured.
In addition, the following are standards for evaluating IC50 of Syk-inhibitory activity used in Table 21. • A: Up to 10 nM • B: 10 to 50 nM • C: 50 to 100 nM • D: 100 to 1000 nM The set of numbers (XYZ-xyz) given in each Example number column indicates the corresponding Example number (Example XYZ-xyz) in Table 21.

Compound | IC50 [nM]
COCCn1ccc2c(Nc3nc(N[C@@H]4CCCC[C@@H]4N)c(F)cc3C(N)=O)cc(F)cc21 (relative stereo) [Example 004-084, 6-(cis-2-aminocyclohexylamino)-5-fluoro-2-((6-fluoro-1-(2-methoxyethyl)-1H-indol-4-yl)amino)nicotinamide] | < 10
NC(=O)c1cc(F)c(N[C@@H]2CCCC[C@@H]2N)nc1Nc1cc(C(F)(F)F)cc2[nH]ccc12 (relative stereo) [Example 004-085, 6-(cis-2-aminocyclohexylamino)-5-fluoro-2-((6-(trifluoromethyl)-1H-indol-4-yl)amino)-nicotinamide] | < 10
NC(=O)c1cc(F)c(N[C@@H]2CCCC[C@@H]2N)nc1Nc1ccc2c(cnn2CC2CC2)c1 (relative stereo) [Example 004-090, 6-(cis-2-aminocyclohexylamino)-2-((1-(cyclopropylmethyl)-1H-indazol-5-yl)amino)-5-fluoronicotinamide] | 10 to 50
NC(=O)c1cc(F)c(N[C@@H]2CCCC[C@@H]2N)nc1Nc1cncc(C(F)(F)F)c1 (relative stereo) [Example 004-098, 6-(cis-2-aminocyclohexylamino)-5-fluoro-2-((5-(trifluoromethyl)pyridin-3-yl)amino)-nicotinamide] | 10 to 50
Cc1cccc(-c2cncc(Nc3nc(N[C@@H]4CCCC[C@@H]4N)c(F)cc3C(N)=O)c2)c1 (relative stereo) [Example 004-099, 6-(cis-2-aminocyclohexylamino)-5-fluoro-2-((5-(3-methylphenyl)pyridin-3-yl)amino)-nicotinamide] | < 10
Cc1ccc(-c2cncc(Nc3nc(N[C@@H]4CCCC[C@@H]4N)c(F)cc3C(N)=O)c2)cc1 (relative stereo) [Example 004-100, 6-(cis-2-aminocyclohexylamino)-5-fluoro-2-((5-(4-methylphenyl)pyridin-3-yl)amino)-nicotinamide] | < 10
Cc1ccccc1-c1cncc(Nc2nc(N[C@@H]3CCCC[C@@H]3N)c(F)cc2C(N)=O)c1 (relative stereo) [Example 004-101, 6-(cis-2-aminocyclohexylamino)-5-fluoro-2-((5-(2-methylphenyl)pyridin-3-yl)amino)-nicotinamide] | 10 to 50
NC(=O)c1cc(F)c(N[C@@H]2CCCC[C@@H]2N)nc1Nc1ccc(C(F)(F)F)nc1 (relative stereo) [Example 004-102, 6-(cis-2-aminocyclohexylamino)-5-fluoro-2-((6-(trifluoromethyl)pyridin-3-yl)amino)-nicotinamide] | 50 to 100
NC(=O)c1cc(F)c(N[C@@H]2CCCC[C@@H]2N)nc1Nc1cncc(N2CCCCC2=O)c1 (relative stereo) [Example 004-108, 6-(cis-2-aminocyclohexylamino)-5-fluoro-2-((5-(2-oxopiperidine-1-yl)pyridin-3-yl)amino)-nicotinamide] | 100 to 1000
NC(=O)c1cc(F)c(N[C@@H]2CCCC[C@@H]2N)nc1Nc1cncc(-c2cccc(OCCN3CCOCC3)c2)c1 (relative stereo) [Example 004-110, 6-(cis-2-aminocyclohexylamino)-5-fluoro-2-((5-(3-(2-morpholinoethoxy)phenyl)pyridin-3-yl)amino)nicotinamide] | < 10
COCCOc1ccc(-c2cncc(Nc3nc(N[C@@H]4CCCC[C@@H]4N)c(F)cc3C(N)=O)c2)cc1 (relative stereo) [Example 004-111, 6-(cis-2-aminocyclohexylamino)-5-fluoro-2-((5-(4-(2-methoxyethoxy)phenyl)pyridin-3-yl)-amino)nicotinamide] | < 10
NC(=O)c1cc(F)c(N[C@@H]2CCCC[C@@H]2N)nc1Nc1cncc(-c2ccc(OCCN3CCOCC3)cc2)c1 (relative stereo) [Example 004-112, 6-(cis-2-aminocyclohexylamino)-5-fluoro-2-((5-(4-(2-morpholinoethoxy)phenyl)pyridin-3-yl)amino)nicotinamide] | < 10
CNc1cccc2cc(Nc3nc(N[C@@H]4CCCC[C@@H]4N)c(F)cc3C(N)=O)cnc12 (relative stereo) [Example 004-116, 6-(cis-2-aminocyclohexylamino)-5-fluoro-2-((8-(methylamino)quinolin-3-yl)amino)-nicotinamide] | < 10
Cn1ccc(-c2cncc(Nc3nc(N[C@@H]4CCCC[C@@H]4N)c(F)cc3C(N)=O)c2)c1 (relative stereo) [Example 004-119, 6-(cis-2-aminocyclohexylamino)-5-fluoro-2-((5-(1-methyl-1H-pyrrol-3-yl)pyridin-3-yl)-amino)nicotinamide] | < 10
COCCOc1cccc2cc(Nc3nc(N[C@@H]4CCCC[C@@H]4N)c(F)cc3C(N)=O)cnc12 (relative stereo) [Example 004-121, 6-(cis-2-aminocyclohexylamino)-5-fluoro-2-((8-(2-methoxyethoxy)quinolin-3-yl)amino)-nicotinamide] | < 10
NC(=O)c1cc(F)c(N[C@@H]2CCCC[C@@H]2N)nc1Nc1cnc2c(O)cccc2c1 (relative stereo) [Example 004-124, 6-(cis-2-aminocyclohexylamino)-5-fluoro-2-((8-hydroxyquinolin-3-yl)amino)nicotinamide] | < 10
NC(=O)c1cc(F)c(N[C@@H]2CCCC[C@@H]2N)nc1Nc1ccc2nccn2c1 (relative stereo) [Example 004-130, 6-(cis-2-aminocyclohexylamino)-5-fluoro-2-((imidazo[1,2-a]pyridin-6-yl)amino)-nicotinamide] | 100 to 1000
NC(=O)c1cc(F)c(N[C@@H]2CCCC[C@@H]2N)nc1Nc1ccn2ccnc2c1 (relative stereo) [Example 004-131, 6-(cis-2-aminocyclohexylamino)-5-fluoro-2-((imidazo[1,2-a]pyridin-7-yl)amino)-nicotinamide] | 10 to 50
NC(=O)c1cc(F)c(N[C@@H]2CCCC[C@@H]2N)nc1Nc1cnc2c(F)cccc2c1 (relative stereo) [Example 004-135, 6-(cis-2-aminocyclohexylamino)-5-fluoro-2-((8-fluoroquinolin-3-yl)amino)nicotinamide] | 10 to 50
CNc1cc(Nc2nc(N[C@@H]3CCCC[C@@H]3N)c(F)cc2C(N)=O)cc2cccnc12 (relative stereo) [Example 004-136, 6-(cis-2-aminocyclohexylamino)-5-fluoro-2-((8-(methylamino)quinolin-6-yl)amino)-nicotinamide] | < 10
COCCNc1cc(Nc2nc(N[C@@H]3CCCC[C@@H]3N)c(F)cc2C(N)=O)cc2cccnc12 (relative stereo) [Example 004-137, 6-(cis-2-aminocyclohexylamino)-5-fluoro-2-((8-(2-methoxyethylamino)quinolin-6-yl)-amino)nicotinamide] | < 10
COc1cc(Nc2nc(N[C@@H]3CCCC[C@@H]3N)c(F)cc2C(N)=O)cc2cccnc12 (relative stereo) [Example 004-138, 6-(cis-2-aminocyclohexylamino)-5-fluoro-2-((8-methoxyquinolin-6-yl)amino)nicotinamide] | < 10
COCCOc1cc(Nc2nc(N[C@@H]3CCCC[C@@H]3N)c(F)cc2C(N)=O)cc2cccnc12 (relative stereo) [Example 004-139, 6-(cis-2-aminocyclohexylamino)-5-fluoro-2-((8-(2-methoxyethoxy)quinolin-6-yl)amino)-nicotinamide] | < 10
NC(=O)c1cc(F)c(N[C@@H]2CCCC[C@@H]2N)nc1Nc1cc(OCc2ccccc2)c2ncccc2c1 (relative stereo) [Example 004-140, 6-(cis-2-aminocyclohexylamino)-2-((8-(benzyloxy)quinolin-6-yl)amino)-5-fluoronicotinamide] | 10 to 50
COC(=O)c1cc(Nc2nc(N[C@@H]3CCCC[C@@H]3N)c(F)cc2C(N)=O)cnc1N (relative stereo) [Example 004-142, methyl 2-amino-5-((6-(cis-2-aminocyclohexylamino)-3-carbamoyl-5-fluoropyridin-2-yl)amino)nicotinate] | 10 to 50
NC(=O)c1cc(F)c(N[C@@H]2CCCC[C@@H]2N)nc1Nc1cncc(-c2cccc(F)c2)c1 (relative stereo) [Example 004-144, 6-(cis-2-aminocyclohexylamino)-5-fluoro-2-((5-(3-fluorophenyl)pyridin-3-yl)amino)-nicotinamide] | < 10
NC(=O)c1cc(F)c(N[C@@H]2CCCC[C@@H]2N)nc1Nc1cncc(-c2ccc(F)cc2)c1 (relative stereo) [Example 004-145, 6-(cis-2-aminocyclohexylamino)-5-fluoro-2-((5-(4-fluorophenyl)pyridin-3-yl)amino)-nicotinamide] | < 10
